From patent publication US20170305922A1, “CARM1 INHIBITORS AND USES THEREOF” (Epizyme, Inc., priority 2014, published 2017) come the findings set out here.

For one test, the target named is T1, Human CARM1 (PRMT4) (Homo sapiens, UniProt Q86X55).
T1 construct: Flag-CARM1-His was eluted with 200 ug/ml FLAG peptide in buffer A; made in house; host or cells: HEK 293F cells infected with recombinant baculovirus (pFastBacMam)
T1 sequence (Q86X55 1-585 isoform Q86X55-1): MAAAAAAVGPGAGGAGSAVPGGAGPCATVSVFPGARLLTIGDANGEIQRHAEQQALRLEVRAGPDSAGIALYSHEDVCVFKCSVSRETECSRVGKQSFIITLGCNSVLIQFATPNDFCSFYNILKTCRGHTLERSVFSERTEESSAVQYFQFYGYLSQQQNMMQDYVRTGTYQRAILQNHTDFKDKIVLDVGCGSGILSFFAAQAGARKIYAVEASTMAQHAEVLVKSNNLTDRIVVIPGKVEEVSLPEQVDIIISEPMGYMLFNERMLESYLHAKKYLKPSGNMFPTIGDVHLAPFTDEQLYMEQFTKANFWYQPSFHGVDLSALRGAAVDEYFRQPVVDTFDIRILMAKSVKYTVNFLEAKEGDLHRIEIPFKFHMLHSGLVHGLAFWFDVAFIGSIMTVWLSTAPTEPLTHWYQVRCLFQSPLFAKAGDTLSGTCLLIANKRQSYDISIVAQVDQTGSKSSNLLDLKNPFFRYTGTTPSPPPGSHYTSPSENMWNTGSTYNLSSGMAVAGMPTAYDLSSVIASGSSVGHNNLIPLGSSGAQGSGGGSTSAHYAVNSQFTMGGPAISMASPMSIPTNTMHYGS
The experiment in a line: CARM1 enzyme assay on peptide substrates (3H-SAM Flashplate). Particulars: Biochemical assay; CARM1 0.25 nM, 3H-SAM 30 nM, peptide 250 nM; read-out: Biochem IC50. An excerpt: S-adenosylmethionine (SAM), S-adenosylhomocysteine (SAH), bicine, Tween20, dimethylsulfoxide (DMSO), bovine skin gelatin (BSG), sodium butyrate and Tris(2-carboxyethyl)phosphine hydrochloride solution (TCEP) were purchased from Sigma-Aldrich at the highest level of purity possible. ^3H-SAM was purchase from American Radiolabeled Chemicals with a specific activity of 80 Ci/mmol. 384-well streptavidin Flashplates were purchased from PerkinElmer.
Peptide representative of human histone H3 residues 16-30 was synthesized with an N-terminal linker-affinity tag motif and a C-terminal amide cap by 21st Century Biochemicals. […] The sequence was Biot-Ahx-[…]-amide and contained a monomethylated arginine at position 26 (SEQ ID NO.:1).
The gene sequence encoding isoform1 containing a deletion of amino acids 539-561 was amplified subsequently and subcloned into pFastBacMam (Viva Biotech).
Recombinant baculovirus were generated according to Bac-to-Bac kit instructions (Life Technologies). Protein over-expression was accomplished by infecting exponentially growing HEK 293F cell culture at 1.3×10^6 cell/ml with virus (MOI=10) in the presence of 8 mM sodium butyrate. Infections were carried out at 37° C. for 48 hours, harvested by centrifugation, and stored at −80° C. for purification.
Column was washed with 500 mM NaCl in buffer A and Flag-CARM1-His was eluted with 200 ug/ml FLAG peptide in buffer A. Pooled fractions were dialyzed in 20 mM Tris, 150 mM NaCl, 5% glycerol and 1 mM DTT, pH 7.8.
The assays were all performed in a buffer consisting of 20 mM Bicine (pH=7.6), 1 mM TCEP, 0.005% BSG, and 0.002% Tween 20, prepared on the day of use. Compounds in 100% DMSO (1 ul) were spotted into a polypropylene 384-well V-bottom plates (Greiner) using a Platemate Plus outfitted with a 384-channel head (Thermo Scientific). DMSO (1 ul) was added to Columns 11, 12, 23, 24, rows A-H for the maximum signal control and 1 ul of SAH, a known product and inhibitor of CARM1, was added to columns 11, 12, 23, 24, rows I-P for the minimum signal control. A cocktail (40 ul) containing the CARM1 enzyme was added by Multidrop Combi (Thermo-Fisher). The compounds were allowed to incubate with CARM1 for 30 min at room temperature, then a cocktail (10 ul) containing ^3H-SAM and peptide was added to initiate the reaction (final volume=51 ul). The final concentrations of the components were as follows: CARM1 was 0.25 nM, ^3H-SAM was 30 nM, peptide was 250 nM, SAH in the minimum signal control wells was 1 mM, and the DMSO concentration was 2%. The assays were stopped by the addition of non-radiolabeled SAM (10 ul) to a final concentration of 300 uM, which dilutes the ^3H-SAM to a level where its incorporation into the peptide substrate is no longer detectable. 50 ul of the reaction in the 384-well polypropylene plate was then transferred to a 384-well Flashplate and the biotinylated peptides were allowed to bind to the streptavidin surface for at least 1 hour before being washed once with 0.1% Tween20 in a Biotek ELx405 plate washer. The plates were then read in a PerkinElmer TopCount plate reader to measure the quantity of ^3H-labeled peptide bound to the Flashplate surface, measured as disintegrations per minute (dpm) or alternatively, referred to as counts per minute (cpm).
where dpm=disintegrations per minute, cmpd=signal in assay well, and min and max are the respective minimum and maximum signal controls.
where top and bottom are the normally allowed to float, but may be fixed at 100 or 0 respectively in a 3-parameter fit. The Hill Coefficient normally allowed to float but may also be fixed at 1 in a 3-parameter fit. Y is the % inhibition and X is the compound concentration.

Test [1] relates to asymmetric di-methyl PABP1 in RKO cells. The experiment in a line: RKO methylation assay: In Cell Western (ICW) for asymmetric di-methyl PABP1 (PABP1me2a). The following applies: Cellular-based (PABP1me2a) ICW (In Cell Western) assay. The text has this: RKO adherent cells were purchased from ATCC (American Type Culture Collection), Manassas, Va., USA. DMEM/Glutamax medium, penicillin-streptomycin, heat inactivated fetal bovine serum, 0.05% trypsin and D-PBS were purchased from Life Technologies, Grand Island, N.Y., USA. Odyssey blocking buffer, 800CW goat anti-rabbit IgG (H+L) antibody, and Licor Odyssey infrared scanner were purchased from Licor Biosciences, Lincoln, Nebr., USA. Asymmetric di-methyl PABP1 antibody was purchased from Cell Signaling Technology, Danvers, Mass., USA. Methanol was purchased from VWR, Franklin, Mass., USA. 10% Tween 20 was purchased from KPL, Inc., Gaithersburg, Md., USA. Paraformaldehyde (PFA) was purchased from EM Sciences. DRAQ5 was purchased from Biostatus Limited, Leicestershire, UK.
RKO adherent cells were maintained in growth medium (DMEM/Glutamax medium supplemented with 10% v/v heat inactivated fetal bovine serum and 100 units/mL penicillin-streptomycin) and cultured at 37° C. under 5% CO2.
Cell treatment, In Cell Western (ICW) for detection of asymmetric di-methyl PABP1 and DNA content: RKO cells were seeded in assay medium at a concentration of 30,000 cells per mL to a poly-D-lysine coated 384 well culture plate (BD Biosciences 356697) with 50 μL per well. Compound (100 nL) from a 96-well source plate was added directly to 384 well cell plate. Plates were incubated at 37° C., 5% CO2 for 48 hours. After two days of incubation, plates were brought to room temperature outside of the incubator for ten minutes and blotted on paper towels to remove cell media. Cells were fixed for 20 minutes at room temperature by adding 50 ul of 8% PFA followed by aspiration of supernatant with the Biotek EL406 plate washer. Cells were then permeabilized by addition of 50 μL of ice cold 100% methanol directly to each well and incubated for 30 min at room temperature. After 30 min, plates were transferred to a Biotek EL406 plate washer and washed 2 times with 100 μL per well of wash buffer (1×PBS). Next 60 μL per well of Odyssey blocking buffer (Odyssey Buffer with 0.1% Tween 20 (v/v)) were added to each plate and incubated 1 hour at room temperature. Blocking buffer was removed and 20 μL per well of primary antibody was added (asymmetric-methyl PABP1) diluted 1:400 in Odyssey buffer with 0.1% Tween 20 (v/v)) and plates were incubated overnight (16 hours) at 4° C. Plates were washed 5 times with 100 μL per well of wash buffer. Next 20 μL per well of secondary antibody was added (1:800 800CW goat anti-rabbit IgG (H+L) antibody, 1:2000 DRAQ5 in Odyssey buffer with 0.1% Tween 20 (v/v)) and incubated for 1 hour at room temperature. The plates were washed 5 times with 100 μL per well wash buffer then 2 times with 100 μL per well of water. Plates were allowed to dry at room temperature then imaged on the Licor Odyssey machine which measures integrated intensity at 700 nm and 800 nm wavelengths. Both 700 and 800 channels were scanned.
First, the ratio for each well was determined by:
Each plate included fourteen control wells of DMSO only treatment (minimum inhibition) as well as fourteen control wells for maximum inhibition treated with 20 μM of a reference compound. The average of the ratio values for each control type was calculated and used to determine the percent […] for each test well in the plate. Reference compound was serially diluted three-fold in DMSO for a total of nine test concentrations, beginning at 20 μM.
Percent inhibition was determined and IC50 curves were generated using triplicate wells per concentration of compound.

`CNC[C@@H](O)COc1ccc(Cl)c(-c2nc(-c3c(C)noc3C)c(Cl)c(N3Cc4cnn(C)c4C3)n2)c1` [Example 11]: the half-inhibitory concentration (IC50) at Human CARM1 (PRMT4) is 60.7 nM; in test [1] (Homo sapiens, RKO, 48 h) it was over 20000 nM.

Regarding `CNC[C@@H](O)COc1ccc(Cl)c(-c2nc(-c3c(C)noc3C)c(C)c(N3Cc4c(C)nn(C(C)C)c4C3)n2)c1` [Example 12], the IC50 came out at 4.1 nM on Human CARM1 (PRMT4) and 81 nM in test [1] (Homo sapiens, RKO, 48 h). On to `CNC[C@@H](O)COc1ccc(Cl)c(-c2nc(-c3c(C)noc3C)c(C)c(N3Cc4c(C)nn(CC(F)(F)F)c4C3)n2)c1` [Example 13], for which the IC50 on Human CARM1 (PRMT4) turned out to be 3.6 nM; in test [1] (Homo sapiens, RKO, 48 h), 74 nM. On to `CNC[C@@H](O)COc1ccc(Cl)c(-c2nc(-c3c(C)noc3C)c(C)c(N3Cc4cc(C(F)(F)F)cnc4C3)n2)c1` [Example 14], for which the IC50 came to 2.2 nM at Human CARM1 (PRMT4) and 44 nM in test [1] (Homo sapiens, RKO, 48 h). On to `CNC[C@@H](O)COc1ccc(F)c(-c2nc(-c3c(C)noc3C)c(C)c(N3Cc4cn(C5CC5)nc4C3)n2)c1` [Example 15], for which the concentration for half-maximal inhibition (IC50) at Human CARM1 (PRMT4) is 1.9 nM; in test [1] (Homo sapiens, RKO, 48 h) it was 140 nM. On to `CNC[C@@H](O)COc1ccc(F)c(-c2nc(-c3c(C)noc3C)c(C)c(N3Cc4cnn(C5CC5)c4C3)n2)c1` [Example 16], for which the IC50 at Human CARM1 (PRMT4) was 2.1 nM; in test [1] (Homo sapiens, RKO, 48 h), 56 nM.

As to `CNC[C@@H](O)COc1ccc(F)c(-c2nc(-c3c(C)noc3C)c(C)c(N3Cc4cn(CC(F)(F)F)nc4C3)n2)c1` [Example 17], the half-maximal inhibitory concentration (IC50) at Human CARM1 (PRMT4) stood at 2.4 nM; in test [1] (Homo sapiens, RKO, 48 h), 162 nM. In the same order, the values of `CNC[C@@H](O)COc1ccc(F)c(-c2nc(-c3c(C)noc3C)c(C)c(N3Cc4cnn(CC(F)(F)F)c4C3)n2)c1` [Example 18] are 3.1 nM and 69 nM. As to `CNC[C@@H](O)COc1ccc(Cl)c(-c2nc(-c3c(C)noc3C)c(C)c(N3CC4(CCC(F)CC4)C3)n2)c1` [Example 20], the IC50 at Human CARM1 (PRMT4) stood at 7.4 nM; in test [1] (Homo sapiens, RKO, 48 h), 125 nM. In the case of `CNC[C@@H](O)COc1ccc(C(F)(F)F)c(-c2nc(-c3c(C)noc3C)c(C)c(N3CC4(CCOCC4)C3)n2)c1` [Example 21], the concentration for half-maximal inhibition (IC50) at Human CARM1 (PRMT4) was determined as 16.6 nM; in test [1] (Homo sapiens, RKO, 48 h) it was 179 nM. For `CNC[C@@H](O)COc1ccc(C(F)(F)F)c(-c2nc(-c3c(C)noc3C)c(C)c(N3Cc4cn(C(C)C)nc4C3)n2)c1` [Example 22], the half-inhibitory concentration (IC50) was determined as 6.3 nM on Human CARM1 (PRMT4) and 181 nM in test [1] (Homo sapiens, RKO, 48 h). Consider `CNC[C@@H](O)COc1ccc(C(F)(F)F)c(-c2nc(-c3c(C)noc3C)c(C)c(N3Cc4cnn(C(C)C)c4C3)n2)c1` [Example 23], for which the IC50 on Human CARM1 (PRMT4) came to 4.7 nM; in test [1] (Homo sapiens, RKO, 48 h), 111 nM.

Regarding `CNC[C@@H](O)COc1ccc(C(F)(F)F)c(-c2nc(-c3c(C)noc3C)c(C)c(N3Cc4cccnc4C3)n2)c1` [Example 24], the IC50 at Human CARM1 (PRMT4) is 5.4 nM; in test [1] (Homo sapiens, RKO, 48 h) it was 188 nM. `CNC[C@@H](O)COc1ccc(Cl)c(-c2nc(-c3c(C)noc3C)c(C)c(N3CCC4(C3)OCCO4)n2)c1` [Example 25]: the half-maximal inhibitory concentration (IC50) on Human CARM1 (PRMT4) was found to be 5.6 nM; in test [1] (Homo sapiens, RKO, 48 h), 452 nM. For `CNC[C@@H](O)COc1ccc(Cl)c(-c2nc(-c3c(C)noc3C)c(C)c(N3Cc4cnn(CC(F)F)c4C3)n2)c1` [Example 26], the IC50 on Human CARM1 (PRMT4) was 3.4 nM; in test [1] (Homo sapiens, RKO, 48 h), 66 nM. Consider `CNC[C@@H](O)COc1ccc(Cl)c(-c2nc(-c3c(C)noc3C)c(C)c(N3Cc4cn(CC(F)F)nc4C3)n2)c1` [Example 27], for which the IC50 at Human CARM1 (PRMT4) turned out to be 3.7 nM; in test [1] (Homo sapiens, RKO, 48 h) it was 115 nM. In the same order, the values of `CNC[C@@H](O)COc1ccc(Cl)c(-c2nc(-c3c(C)noc3C)c(C)c(N3Cc4cnn(C(C)C)c4C3)n2)c1` [Example 28] are 3.2 nM and 41 nM. `CNC[C@H](O)COc1ccc(Cl)c(-c2nc(-c3c(C)noc3C)c(C)c(N3CC4(CCN(C(=O)OC)CC4)C3)n2)c1` [Example 248] showed an IC50 in test [1] (Homo sapiens, RKO, 48 h) of 294 nM. As for `CNC[C@@H](O)COc1ccc(Cl)c(-c2nc(-c3c(C)noc3C)c(C)c(N3CC4(CCN(C(=O)OC)CC4)C3)n2)c1` [Example 261], inhibition in test [1] (Homo sapiens, RKO, 48 h) was half-maximal at 53.9 nM (IC50). `CNC[C@@H](O)COc1ccc(Cl)c(-c2nc(-c3c(C)noc3C)c(C)c(N3CC4(CCN(C(=O)OC)CC4)C3)n2)c1` [Example 292]: in test [1] (48 hours), the IC50 was determined as 66.7 nM.
